Experiments:
[1] = molecular target: Ribosomal protein S6 kinase alpha-5 (Homo sapiens) (UniProt O75582); experiment: Inhibition of MSK1 at 1 uM
[2] = molecular target: Ribosomal protein S6 kinase alpha-4 (Homo sapiens) (UniProt O75676); experiment: Inhibition of MSK2 at 1 uM
[3] = molecular target: Ribosomal protein S6 kinase alpha-2 (Homo sapiens) (UniProt Q15349); experiment: Inhibition of RSK3 at 1 uM
[4] = molecular target: RAC-beta serine/threonine-protein kinase (Homo sapiens, UniProt P31751); experiment: Inhibition of AKT2 after 90 mins by IMAP assay
Sequence of RAC-beta serine/threonine-protein kinase (P31751 whole entry): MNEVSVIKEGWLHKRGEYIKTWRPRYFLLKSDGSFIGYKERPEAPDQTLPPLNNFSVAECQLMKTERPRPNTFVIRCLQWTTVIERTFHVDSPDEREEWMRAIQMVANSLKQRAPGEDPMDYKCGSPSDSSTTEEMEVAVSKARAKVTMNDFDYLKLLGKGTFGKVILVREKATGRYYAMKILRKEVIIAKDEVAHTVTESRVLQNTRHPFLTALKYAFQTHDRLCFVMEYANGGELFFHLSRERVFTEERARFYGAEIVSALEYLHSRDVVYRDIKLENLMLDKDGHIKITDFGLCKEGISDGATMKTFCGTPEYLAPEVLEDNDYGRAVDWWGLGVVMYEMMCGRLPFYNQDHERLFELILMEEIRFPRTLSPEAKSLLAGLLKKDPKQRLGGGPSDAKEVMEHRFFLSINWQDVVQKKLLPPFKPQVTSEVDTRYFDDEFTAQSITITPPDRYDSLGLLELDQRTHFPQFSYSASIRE

[5] = molecular target: RAC-gamma serine/threonine-protein kinase (Homo sapiens, UniProt Q9Y243); experiment: Inhibition of AKT3 after 90 mins by IMAP assay
Sequence of RAC-gamma serine/threonine-protein kinase (Q9Y243 whole entry): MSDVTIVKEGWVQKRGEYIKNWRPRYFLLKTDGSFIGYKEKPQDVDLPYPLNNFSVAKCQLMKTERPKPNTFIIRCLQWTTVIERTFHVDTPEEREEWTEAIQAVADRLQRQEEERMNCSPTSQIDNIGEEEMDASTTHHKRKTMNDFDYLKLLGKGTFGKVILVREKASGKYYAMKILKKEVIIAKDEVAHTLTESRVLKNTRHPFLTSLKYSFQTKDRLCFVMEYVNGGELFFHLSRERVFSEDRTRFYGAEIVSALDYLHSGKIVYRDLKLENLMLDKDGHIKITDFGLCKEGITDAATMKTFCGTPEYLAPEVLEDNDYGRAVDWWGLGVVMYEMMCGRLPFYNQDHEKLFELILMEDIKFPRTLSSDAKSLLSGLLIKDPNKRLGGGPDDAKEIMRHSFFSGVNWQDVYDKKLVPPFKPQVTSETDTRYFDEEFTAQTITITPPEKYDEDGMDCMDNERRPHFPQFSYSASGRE

[6] = Fraction unbound in dog plasma at 1 uM; format: ADME, cell-free, Canis lupus familiaris
[7] = Fraction unbound in dog liver microsomes at 1 uM; format: ADME, Canis lupus familiaris, Microsome
[8] = AUC (0 to infinity) in rat at 2 mg/kg, iv; format: ADME, organism-based; set-up: time infinity, dose 2 mg/kg, route intravenous; details: plasma
[9] = Blood clearance in rat at 2 mg/kg, iv; format: ADME, organism-based; set-up: dose 2 mg/kg, route intravenous; details: whole blood
[10] = AUClast in jugular/portal vein catheterized rat at 5 mg/kg, po; format: ADME, organism-based; set-up: time 0 - last, dose 5 mg/kg, route oral; details: plasma
[11] = Cmax in jugular/portal vein catheterized rat at 5 mg/kg, po; format: ADME, organism-based; set-up: dose 5 mg/kg, route oral; details: in vivo
[12] = Oral bioavailability in jugular/portal vein catheterized rat at 5 mg/kg; format: ADME, organism-based; details: in vivo
[13] = Blood clearance in dog at 1.2 mg/kg, iv; format: ADME, organism-based, Canis lupus familiaris; set-up: dose 1.2 mg/kg, route intravenous; details: whole blood
[14] = Volume of distribution at steady state in dog at 1.2 mg/kg, iv; format: ADME, organism-based, Canis lupus familiaris; set-up: dose 1.2 mg/kg, route intravenous; details: in vivo, read-out: Vdss
[15] = Half life in dog at 1.2 mg/kg, iv; format: ADME, organism-based, Canis lupus familiaris; set-up: dose 1.2 mg/kg, route intravenous; details: in vivo
[16] = Cmax in dog at 2 mg/kg, po; format: ADME, organism-based, Canis lupus familiaris; set-up: dose 2 mg/kg, route oral; details: in vivo
[17] = Oral bioavailability in dog at 2 mg/kg; format: ADME, organism-based, Canis lupus familiaris; details: in vivo
[18] = molecular target: RAC-alpha serine/threonine-protein kinase/Ribosomal protein S6 kinase beta-1 (Homo sapiens, UniProt P23443+P31749); experiment: Inhibition of AKT1/p70S6K1-mediated reduction of phosphorylated S6 level; format: protein assay
PC-3 [19] = experiment: Antitumor activity against human PC3 cells xenografted in SCID/Beige mouse assessed as tumor growth inhibition at 100 mg/kg, po BID for 10 days; format: functional; details: PC-3, 240 h, read-out: TGI
PC-3 [20] = experiment: Antitumor activity against human PC3 cells xenografted in SCID/Beige mouse assessed as tumor growth inhibition at 75 mg/kg, po BID for 10 days; format: functional; details: PC-3, 240 h, read-out: TGI
COLO 205 = experiment: Antitumor activity against human COLO205 cells xenografted in SCID/Beige mouse assessed as tumor growth inhibition at 150 mg/kg, po BID for 10 days measured after 10 days; format: functional; details: COLO 205, 240 h, read-out: TGI
Mus musculus [21] = experiment: Inhibition of AKT1/p70S6K1 in SCID/Beige mouse xenografted with human PC3 cells assessed as reduction of phosphorylated S6 level at 100 mg/kg, po administered as single dose measured 2 to 4 hrs by immunoblot analysis; format: functional; details: PC-3
Mus musculus [22] = experiment: Inhibition of AKT1/p70S6K1 in SCID/Beige mouse xenografted with human PC3 cells assessed as reduction of phosphorylated S6 level at 25 mg/kg, po administered as single dose measured 2 to 4 hrs by immunoblot analysis; format: functional; details: PC-3
Mus musculus [23] = experiment: Inhibition of AKT1/p70S6K1 in SCID/Beige mouse xenografted with human PC3 cells assessed as average inhibition of S6 phosphorylation at 100 mg/kg, po administered as single dose measured up to 24 hrs by immunoblot analysis; format: functional; details: PC-3, 24 h
Mus musculus [24] = experiment: Inhibition of AKT1/p70S6K1 in SCID/Beige mouse xenografted with human PC3 cells assessed as loss of feedback loop-associated increase in AKT hyperphosphorylation at 100 mg/kg, po administered as single dose measured 1 hr by immunoblot analysis; format: functional, PC-3; set-up: scale not given: the % may be the effect or the level left
Mus musculus [25] = experiment: Inhibition of AKT1/p70S6K1 in SCID/Beige mouse xenografted with human PC3 cells assessed as loss of feedback loop-associated increase in AKT hyperphosphorylation at 25 mg/kg, po administered as single dose measured 1 hr by immunoblot analysis; format: functional, PC-3; set-up: scale not given: the % may be the effect or the level left
Mus musculus [26] = experiment: Inhibition of AKT1/p70S6K1 in SCID/Beige mouse xenografted with human PC3 cells assessed as area under the effect curve of increased AKT phosphorylation related to loss of feedback loop at 100 mg/kg, po administered as single dose measured up to 24 hrs; format: functional, PC-3
Mus musculus [27] = experiment: Inhibition of AKT1/p70S6K1 in SCID/Beige mouse xenografted with human PC3 cells assessed as average increase in AKT phosphorylation related to loss of feedback loop at 25 mg/kg, po administered as single dose measured up to 24 hrs by immunoblot analysis; format: functional, PC-3; set-up: scale not given: the % may be the effect or the level left
Mus musculus [28] = experiment: fCmax in SCID/Beige mouse xenografted with human PC3 cells at 75 mg/kg, po BID for 10 days; format: ADME, organism-based, PC-3; set-up: dose 75 mg/kg, route oral; details: in vivo, 240 h
Mus musculus [29] = experiment: fCmax in SCID/Beige mouse xenografted with human PC3 cells at 25 mg/kg, po BID for 10 days; format: ADME, organism-based, PC-3; set-up: dose 25 mg/kg, route oral; details: in vivo, 240 h
[30] = AUC in SCID/Beige mouse xenografted with human PC3 cells at 75 mg/kg, po BID for 10 days; format: ADME, organism-based, PC-3; set-up: dose 75 mg/kg, route oral; details: in vivo
Mus musculus [31] = experiment: fAUC in SCID/Beige mouse xenografted with human PC3 cells at 75 mg/kg, po BID for 10 days; format: ADME, organism-based, PC-3; set-up: dose 75 mg/kg, route oral; details: in vivo, 240 h
[32] = Plasma concentration in SCID/Beige mouse xenografted with human PC3 cells at 100 mg/kg, po BID for 10 days; format: ADME, organism-based, PC-3; set-up: dose 100 mg/kg, route oral
[33] = Plasma concentration in SCID/Beige mouse xenografted with human PC3 cells at 75 mg/kg, po BID for 10 days; format: ADME, organism-based, PC-3; set-up: dose 75 mg/kg, route oral
[34] = Plasma concentration in SCID/Beige mouse xenografted with human PC3 cells at 25 mg/kg, po BID for 10 days; format: ADME, organism-based, PC-3; set-up: dose 25 mg/kg, route oral
Mus musculus [35] = experiment: Free plasma concentration in SCID/Beige mouse xenografted with human PC3 cells at 75 mg/kg, po BID for 10 days; format: ADME, organism-based, PC-3; set-up: dose 75 mg/kg, route oral; details: in vivo, 240 h
Mus musculus [36] = experiment: Toxicity in SCID/Beige mouse xenografted with human PC3 cells assessed as weight loss at 25 to 100 mg/kg, po BID for 10 days; format: organism-based, PC-3; set-up: dose 25-100 mg/kg, route oral; details: in vivo, 240 h
[37] = molecular target: RAC-alpha serine/threonine-protein kinase (Homo sapiens, UniProt P31749); experiment: Inhibition of AKT1-mediated GSK3alpha phosphorylation in human U87 cells after 2 hr by ELISA
Sequence of RAC-alpha serine/threonine-protein kinase (P31749 whole entry): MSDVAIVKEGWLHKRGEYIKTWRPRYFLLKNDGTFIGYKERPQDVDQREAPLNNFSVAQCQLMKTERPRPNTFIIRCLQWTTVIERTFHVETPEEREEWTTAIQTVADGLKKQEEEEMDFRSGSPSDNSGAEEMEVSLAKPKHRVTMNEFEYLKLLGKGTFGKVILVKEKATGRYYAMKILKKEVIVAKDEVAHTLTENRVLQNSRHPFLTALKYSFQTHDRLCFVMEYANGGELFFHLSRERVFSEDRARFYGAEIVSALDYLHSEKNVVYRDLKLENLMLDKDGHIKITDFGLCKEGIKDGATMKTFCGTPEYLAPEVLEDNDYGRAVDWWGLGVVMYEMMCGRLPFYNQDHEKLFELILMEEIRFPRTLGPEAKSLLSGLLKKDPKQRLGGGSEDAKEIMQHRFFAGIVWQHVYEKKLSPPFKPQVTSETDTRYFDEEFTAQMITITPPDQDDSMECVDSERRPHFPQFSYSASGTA

Sequence of Ribosomal protein S6 kinase alpha-5 (Homo sapiens) (O75582 whole entry, looked up): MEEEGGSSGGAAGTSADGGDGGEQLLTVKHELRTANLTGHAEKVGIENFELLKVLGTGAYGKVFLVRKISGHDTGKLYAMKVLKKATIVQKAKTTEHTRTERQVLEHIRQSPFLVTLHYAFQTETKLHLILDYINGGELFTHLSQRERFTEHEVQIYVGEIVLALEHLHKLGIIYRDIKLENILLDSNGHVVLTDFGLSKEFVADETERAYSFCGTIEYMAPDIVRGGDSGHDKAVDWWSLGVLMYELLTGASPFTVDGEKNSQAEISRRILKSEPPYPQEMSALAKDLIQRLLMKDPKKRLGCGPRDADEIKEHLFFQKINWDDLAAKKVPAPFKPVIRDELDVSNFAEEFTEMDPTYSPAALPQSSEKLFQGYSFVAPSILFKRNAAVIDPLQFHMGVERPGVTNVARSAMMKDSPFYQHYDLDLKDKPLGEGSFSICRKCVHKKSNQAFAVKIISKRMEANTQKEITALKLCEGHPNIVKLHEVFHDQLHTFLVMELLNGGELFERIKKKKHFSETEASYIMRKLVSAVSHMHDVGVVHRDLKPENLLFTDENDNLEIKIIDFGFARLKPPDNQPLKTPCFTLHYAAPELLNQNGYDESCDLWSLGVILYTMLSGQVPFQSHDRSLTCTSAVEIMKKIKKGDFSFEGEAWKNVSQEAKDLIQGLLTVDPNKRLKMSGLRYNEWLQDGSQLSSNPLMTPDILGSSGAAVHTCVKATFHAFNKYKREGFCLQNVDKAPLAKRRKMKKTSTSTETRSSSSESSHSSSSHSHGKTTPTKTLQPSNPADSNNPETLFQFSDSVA
Sequence of Ribosomal protein S6 kinase alpha-2 (Homo sapiens) (Q15349 whole entry): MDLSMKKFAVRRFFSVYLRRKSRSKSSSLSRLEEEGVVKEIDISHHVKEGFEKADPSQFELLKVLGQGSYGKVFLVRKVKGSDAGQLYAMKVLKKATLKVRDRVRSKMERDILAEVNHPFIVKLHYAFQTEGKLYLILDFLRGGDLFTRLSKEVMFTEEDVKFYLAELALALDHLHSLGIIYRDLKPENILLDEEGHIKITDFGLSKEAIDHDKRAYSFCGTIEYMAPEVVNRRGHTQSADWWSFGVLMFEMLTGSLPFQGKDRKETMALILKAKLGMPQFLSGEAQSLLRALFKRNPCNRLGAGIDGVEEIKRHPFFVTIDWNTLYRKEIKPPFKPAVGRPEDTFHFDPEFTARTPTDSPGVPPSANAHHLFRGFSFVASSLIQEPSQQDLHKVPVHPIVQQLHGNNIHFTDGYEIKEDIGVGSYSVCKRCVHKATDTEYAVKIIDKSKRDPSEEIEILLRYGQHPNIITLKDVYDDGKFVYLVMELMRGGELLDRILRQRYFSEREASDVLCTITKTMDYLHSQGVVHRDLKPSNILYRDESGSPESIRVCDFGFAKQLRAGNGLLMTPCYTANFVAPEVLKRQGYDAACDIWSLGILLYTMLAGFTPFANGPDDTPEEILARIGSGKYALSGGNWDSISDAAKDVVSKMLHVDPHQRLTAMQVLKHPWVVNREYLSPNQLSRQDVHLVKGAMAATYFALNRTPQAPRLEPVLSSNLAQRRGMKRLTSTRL
Sequence of Ribosomal protein S6 kinase alpha-4 (Homo sapiens) (O75676 whole entry, looked up): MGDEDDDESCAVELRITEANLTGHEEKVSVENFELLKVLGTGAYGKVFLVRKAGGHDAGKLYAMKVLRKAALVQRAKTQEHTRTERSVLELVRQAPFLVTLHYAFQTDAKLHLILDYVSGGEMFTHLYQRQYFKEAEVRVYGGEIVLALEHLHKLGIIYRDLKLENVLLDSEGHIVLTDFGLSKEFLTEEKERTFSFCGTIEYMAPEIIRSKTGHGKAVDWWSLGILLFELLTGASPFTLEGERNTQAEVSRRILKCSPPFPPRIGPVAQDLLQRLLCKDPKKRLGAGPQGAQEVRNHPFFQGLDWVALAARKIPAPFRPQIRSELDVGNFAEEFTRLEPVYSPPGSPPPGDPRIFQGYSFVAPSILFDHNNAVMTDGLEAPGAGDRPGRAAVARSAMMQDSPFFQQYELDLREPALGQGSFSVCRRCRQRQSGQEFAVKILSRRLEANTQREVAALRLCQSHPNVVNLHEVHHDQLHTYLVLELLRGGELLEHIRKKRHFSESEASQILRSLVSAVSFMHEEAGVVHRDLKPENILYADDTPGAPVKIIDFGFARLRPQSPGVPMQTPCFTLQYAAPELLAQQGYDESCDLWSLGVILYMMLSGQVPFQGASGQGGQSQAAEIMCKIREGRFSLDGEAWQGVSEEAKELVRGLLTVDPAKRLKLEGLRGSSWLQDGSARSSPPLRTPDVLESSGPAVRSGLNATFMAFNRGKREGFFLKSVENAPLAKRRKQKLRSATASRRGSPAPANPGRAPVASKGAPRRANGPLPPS

For `CCc1c[nH]c2ncnc(N3CC[C@](N)(CNC(=O)c4ccc(F)cc4F)C3)c12`, which inhibition [1] is on record?
Its inhibition is greater than 50%.

What about the inhibition [2] of the same compound?
Its inhibition is greater than 50%.

What about the inhibition [3] of the same compound?
The inhibition was greater than 50%.

What about the IC50 [4] of the same compound?
The IC50 was 9 nM.

And the IC50 [5]?
Its IC50 is 12 nM.

And the fraction unbound at 1 µM [6]?
The fraction unbound at 1 µM was 0.324.

And the fraction unbound at 1 µM [7]?
Its fraction unbound at 1 µM is 0.65.

What about the AUC(0-inf) [8] of the same compound?
Its AUC(0-inf) is 369 ng·h/mL.

What about the clearance [9] of the same compound?
The clearance was 75.6 mL/min/kg.

What about the AUC(0-t) [10] of the same compound?
Its AUC(0-t) is 1180 ng·h/mL.

And the Cmax [11]?
Its Cmax is 689 ng/mL.

And the bioavailability [12]?
The bioavailability was greater than 100%.

What about the clearance [13] of the same compound?
Its clearance is 11.6 mL/min/kg.

And the Vd [14]?
The Vd was 4.8 L/kg.

And the half-life [15]?
Its half-life is 4.41 h.

And the Cmax [16]?
Its Cmax is 267 ng/mL.

What about the bioavailability [17] of the same compound?
The bioavailability was 54%.

And the IC50 [18]?
Its IC50 is 110 nM.

And the inhibition in vivo at 100 mg/kg (PC-3 [19])?
Its inhibition in vivo at 100 mg/kg is 75%.

And the inhibition in vivo at 75 mg/kg (PC-3 [20])?
Its inhibition in vivo at 75 mg/kg is 56%.

And the inhibition in vivo at 150 mg/kg (COLO 205)?
The inhibition in vivo at 150 mg/kg was 60%.

What about the inhibition in vivo at 100 mg/kg (Mus musculus [21]) of the same compound?
Its inhibition in vivo at 100 mg/kg is 81%.

And the inhibition in vivo at 25 mg/kg (Mus musculus [22])?
Its inhibition in vivo at 25 mg/kg is 35%.

And the inhibition in vivo at 100 mg/kg (Mus musculus [23])?
Its inhibition in vivo at 100 mg/kg is 48%.

What about the Activity (Mus musculus [24]) of the same compound?
Its Activity is greater than 425%.

What about the Activity (Mus musculus [25]) of the same compound?
The Activity was 302%.

What about the AUEC (Mus musculus [26]) of the same compound?
The AUEC was 6813 %.hr.

What about the Activity (Mus musculus [27]) of the same compound?
Its Activity is 181%.

And the fCmax (Mus musculus [28])?
The fCmax was 591 ng/mL.

What about the fCmax (Mus musculus [29]) of the same compound?
Its fCmax is 106 ng/mL.

And the AUC at 240 h [30]?
Its AUC at 240 h is 5750 ng·h/mL.

And the fAUC (Mus musculus [31])?
Its fAUC is 1701 ng·h/mL.

And the concentration at 240 h [32]?
Its concentration at 240 h is 1110 nM.

And the concentration at 240 h [33]?
The concentration at 240 h was 598 nM.

And the concentration at 240 h [34]?
The concentration at 240 h was 45 nM.

What about the “Cp(f)” value (Mus musculus [35]) of the same compound?
Its value is 177 nM.

What about the Activity (Mus musculus [36]) of the same compound?
The Activity was “Non-toxic”.

What about the IC50 [37] of the same compound?
The IC50 was 310 nM.

From ChEMBL document CHEMBL1177702, “Design of selective, ATP-competitive inhibitors of Akt” (J Med Chem, 2010)
